Data taken from publication PMC8580319, “Dual activities of ACC synthase: Novel clues regarding the molecular evolution of ACS genes” (Science Advances, 2021).
One block for each molecule: values may come before it.

How the values were obtained:
AtACS7 [1] = target: T1, AtACS7 (Arabidopsis thaliana, UniProt Q9STR4); assay: inhibition of Cβ-S lyase activity, pyruvate assay; assay type: biochemical; conditions: L-cystine 4 mM, 100 μM PLP, 30°C; forms adduct with PLP
T1 construct: gene ACS7; recombinant from E. coli Rosetta 2 (DE3) pLysS; pET-28a (His) or pGEX-6p-1 (GST); His-tagged protein for crystals; dimer
T1 sequence (Q9STR4 1-447): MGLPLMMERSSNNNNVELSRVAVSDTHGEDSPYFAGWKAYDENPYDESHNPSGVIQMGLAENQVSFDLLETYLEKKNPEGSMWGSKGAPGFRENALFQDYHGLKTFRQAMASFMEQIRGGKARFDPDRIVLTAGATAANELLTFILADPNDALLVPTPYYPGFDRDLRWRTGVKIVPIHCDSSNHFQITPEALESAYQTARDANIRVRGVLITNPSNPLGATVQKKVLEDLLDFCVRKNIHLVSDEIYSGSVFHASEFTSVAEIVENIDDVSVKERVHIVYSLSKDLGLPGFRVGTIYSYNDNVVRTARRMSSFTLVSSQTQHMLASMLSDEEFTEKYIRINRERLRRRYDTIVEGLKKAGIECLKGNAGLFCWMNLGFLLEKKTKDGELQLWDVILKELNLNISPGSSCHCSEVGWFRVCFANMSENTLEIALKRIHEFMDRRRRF

AtACS7 [2] = target: T1, AtACS7; assay: Cβ-S lyase activity with and without PLP, pyruvate assay; assay type: biochemical; conditions: L-cystine 4 mM, 30°C
AtACS7 [3] = target: T2, AtACS7 (Arabidopsis thaliana, UniProt Q9STR4, D245N); assay: ACC formation, converted to ethylene, GC; assay type: biochemical; conditions: ACS activity, reduced; 0.4 mM SAM, pH 8.5, 30°C, 10 μM PLP
T2 construct: gene ACS7; recombinant from E. coli Rosetta 2 (DE3) pLysS; pET-28a (His) or pGEX-6p-1 (GST); His-tagged protein for crystals; dimer
T2 sequence (Q9STR4 1-447 D245N): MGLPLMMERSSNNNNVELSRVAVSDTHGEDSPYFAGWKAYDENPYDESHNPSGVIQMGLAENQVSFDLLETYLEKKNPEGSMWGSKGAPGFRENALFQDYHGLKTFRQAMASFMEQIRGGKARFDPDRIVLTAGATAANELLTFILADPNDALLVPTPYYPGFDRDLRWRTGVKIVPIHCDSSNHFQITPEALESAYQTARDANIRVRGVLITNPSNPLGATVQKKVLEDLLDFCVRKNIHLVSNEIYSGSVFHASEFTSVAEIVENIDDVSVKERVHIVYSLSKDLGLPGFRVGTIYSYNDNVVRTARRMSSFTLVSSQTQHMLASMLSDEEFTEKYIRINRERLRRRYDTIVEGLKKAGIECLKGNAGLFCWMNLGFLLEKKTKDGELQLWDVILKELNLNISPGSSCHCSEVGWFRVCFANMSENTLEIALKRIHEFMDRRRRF

[4] = target: AtACS7-R6 (AtACS7 in which BOX2 is replaced by PpACL1-BOX2) (Arabidopsis | Physcomitrella patens); assay: crystal structure; AtACS7-R6 with PPG (1 mM PLP and AVG added), hanging drop, 0.1 M Hepes pH 7.6, 6% PEG-10000; 2.95 Å; one dimer in the asymmetric unit
[5] = target: the molecule itself; assay: crystal structure; AtACS7 with PPG (1 mM PLP and AVG added), hanging drop, 0.1 M tris pH 8.6, 23% PEG-3350; 2.20 Å; four complexes as two dimers in the asymmetric unit

Molecule: NCCO/C=C/[C@H](N)C(=O)O [AVG]
inhibition at 5 μM (AtACS7 [1]): could be totally suppressed by adding AVG to the reaction mixture

Molecule: Cc1ncc(COP(=O)(O)O)c(C=O)c1O [PLP]
Cβ-S lyase activity with and without PLP, pyruvate assay (AtACS7 [2]): The Cβ-S lyase activity of AtACS7 was also PLP dependent

Molecule: C[S+](CC[C@H](N)C(=O)O)C[C@H]1O[C@@H](n2cnc3c(N)ncnc32)[C@H](O)[C@@H]1O (some centres unmarked) [SAM]
ACC formation, converted to ethylene, GC (AtACS7 [3]): mutant still retained considerable, albeit reduced, ACS activity

stoichiometry N [4]: 2
Molecule: AtACS7-R6 (AtACS7 in which BOX2 is replaced by PpACL1-BOX2) (enzyme)

B1: Arabidopsis ACS7 (AtACS7), 1-aminocyclopropane-1-carboxylate (ACC) synthase 7 (enzyme)
chain: MGLPLMMERSSNNNNVELSRVAVSDTHGEDSPYFAGWKAYDENPYDESHNPSGVIQMGLAENQVSFDLLETYLEKKNPEGSMWGSKGAPGFRENALFQDYHGLKTFRQAMASFMEQIRGGKARFDPDRIVLTAGATAANELLTFILADPNDALLVPTPYYPGFDRDLRWRTGVKIVPIHCDSSNHFQITPEALESAYQTARDANIRVRGVLITNPSNPLGATVQKKVLEDLLDFCVRKNIHLVSDEIYSGSVFHASEFTSVAEIVENIDDVSVKERVHIVYSLSKDLGLPGFRVGTIYSYNDNVVRTARRMSSFTLVSSQTQHMLASMLSDEEFTEKYIRINRERLRRRYDTIVEGLKKAGIECLKGNAGLFCWMNLGFLLEKKTKDGELQLWDVILKELNLNISPGSSCHCSEVGWFRVCFANMSENTLEIALKRIHEFMDRRRRF
notes: ACC synthase 7 (AtACS7) of Arabidopsis thaliana, TAIR locus AT4G26200; vector pET-28a or pGEX-6p-1 per the methods, HisTrap purification points to the His form; also called wild-type AtACS7; source: E. coli BL21 [Rosetta 2 (DE3) plysS], purified (HisTrap, Hitrap Q HP ion exchange, Superdex 200 gel filtration)
stoichiometry N [5]: 2
